Measured values reported in publication PMC6272711, “5-Methoxyquinoline Derivatives as a New Class of EZH2 Inhibitors” (Molecules, 2015).
“Also recorded” adds a separate entry of the source. Like-named read-outs stand apart in the source and are kept apart here.

Tests used:
[1] = tested on: H3K27me3 level in MDA-MB-231 cell line; experiment: Western blotting assay of H3K27me3 status; assay type: cell-based, human; details: MDA-MB-231 cells, treatment for 72 h, western blot, total H3 loading control
Procedure: The main catalytic activity of EZH2 is methylating histone 3 lysine 27 (H3K27), so evaluation of H3K27me3 was conducted through a western blotting assay.
Figure 3 Analysis of H3K27 methylation in MDA-MB-231 cell line treated with 1 and 5k. Evaluation of H3K27me3 following treatment for 72 h. Total H3 is shown as a loading control.
The western blotting assay of H3K27 status was performed as previously described.

MDA-MB-231 = experiment: MTT cell growth inhibition, MDA-MB-231; assay type: cell-based; details: Homo sapiens, MDA-MB-231, 96 h, read-out: IC50 MDA-MB-231
HCT15 = experiment: MTT cell growth inhibition, HCT15; assay type: cell-based, human; details: means of at least three measurements
G9a = molecular target: T1, G9a (Homo sapiens, UniProt Q96KQ7); experiment: Enzyme selectivity assay, G9a; assay type: biochemical; details: means of at least three measurements
T1 sequence (Q96KQ7 1-1210): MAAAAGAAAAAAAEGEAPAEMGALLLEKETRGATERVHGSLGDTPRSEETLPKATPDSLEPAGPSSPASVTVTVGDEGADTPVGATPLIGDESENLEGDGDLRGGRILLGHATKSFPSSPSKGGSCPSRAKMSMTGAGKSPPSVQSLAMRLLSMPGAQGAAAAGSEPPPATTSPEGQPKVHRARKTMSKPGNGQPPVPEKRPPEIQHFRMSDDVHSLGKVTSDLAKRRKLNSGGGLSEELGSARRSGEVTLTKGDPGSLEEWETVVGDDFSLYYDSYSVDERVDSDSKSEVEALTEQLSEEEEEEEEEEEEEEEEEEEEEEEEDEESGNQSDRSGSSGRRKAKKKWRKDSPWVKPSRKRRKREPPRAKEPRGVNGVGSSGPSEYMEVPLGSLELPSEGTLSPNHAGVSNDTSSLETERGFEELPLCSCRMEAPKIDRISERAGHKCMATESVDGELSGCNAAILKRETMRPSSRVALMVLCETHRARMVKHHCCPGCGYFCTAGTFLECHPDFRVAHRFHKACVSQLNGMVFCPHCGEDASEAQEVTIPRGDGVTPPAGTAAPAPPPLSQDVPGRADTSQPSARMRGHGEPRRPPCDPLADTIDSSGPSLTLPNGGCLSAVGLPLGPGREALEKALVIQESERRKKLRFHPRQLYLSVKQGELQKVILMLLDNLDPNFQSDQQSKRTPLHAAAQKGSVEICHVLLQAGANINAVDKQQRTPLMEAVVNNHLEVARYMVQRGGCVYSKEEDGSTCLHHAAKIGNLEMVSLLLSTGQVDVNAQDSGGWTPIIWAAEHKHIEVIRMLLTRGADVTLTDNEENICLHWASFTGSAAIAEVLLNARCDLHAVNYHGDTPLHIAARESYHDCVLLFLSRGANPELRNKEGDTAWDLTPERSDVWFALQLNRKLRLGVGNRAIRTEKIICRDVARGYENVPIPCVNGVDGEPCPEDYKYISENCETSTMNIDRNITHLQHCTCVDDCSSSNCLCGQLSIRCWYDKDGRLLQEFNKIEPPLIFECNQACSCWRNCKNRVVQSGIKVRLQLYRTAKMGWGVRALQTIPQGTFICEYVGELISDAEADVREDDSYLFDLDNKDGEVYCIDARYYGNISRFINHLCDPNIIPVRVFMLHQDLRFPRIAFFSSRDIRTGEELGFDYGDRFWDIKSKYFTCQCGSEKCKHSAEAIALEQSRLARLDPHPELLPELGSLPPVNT

SETD8 = molecular target: T2, SETD8 (Homo sapiens, UniProt Q9NQR1); experiment: Enzyme selectivity assay, SETD8; assay type: biochemical; details: means of at least three measurements
T2 sequence (Q9NQR1 1-393): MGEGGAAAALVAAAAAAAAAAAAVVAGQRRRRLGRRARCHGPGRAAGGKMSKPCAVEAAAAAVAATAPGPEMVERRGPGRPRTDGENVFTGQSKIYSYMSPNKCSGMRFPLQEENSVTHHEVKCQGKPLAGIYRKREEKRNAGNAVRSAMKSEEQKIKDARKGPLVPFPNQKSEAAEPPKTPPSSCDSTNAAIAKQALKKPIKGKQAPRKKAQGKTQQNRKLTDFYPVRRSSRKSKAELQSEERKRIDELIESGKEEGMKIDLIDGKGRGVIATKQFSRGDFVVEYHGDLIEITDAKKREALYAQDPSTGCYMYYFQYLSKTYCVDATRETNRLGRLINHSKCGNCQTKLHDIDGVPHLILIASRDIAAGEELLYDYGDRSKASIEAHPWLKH

SUV39H1 = molecular target: T3, SUV39H1 (Homo sapiens, UniProt O43463); experiment: Enzyme selectivity assay, SUV39H1; assay type: biochemical; details: means of at least three measurements
T3 sequence (O43463 1-412): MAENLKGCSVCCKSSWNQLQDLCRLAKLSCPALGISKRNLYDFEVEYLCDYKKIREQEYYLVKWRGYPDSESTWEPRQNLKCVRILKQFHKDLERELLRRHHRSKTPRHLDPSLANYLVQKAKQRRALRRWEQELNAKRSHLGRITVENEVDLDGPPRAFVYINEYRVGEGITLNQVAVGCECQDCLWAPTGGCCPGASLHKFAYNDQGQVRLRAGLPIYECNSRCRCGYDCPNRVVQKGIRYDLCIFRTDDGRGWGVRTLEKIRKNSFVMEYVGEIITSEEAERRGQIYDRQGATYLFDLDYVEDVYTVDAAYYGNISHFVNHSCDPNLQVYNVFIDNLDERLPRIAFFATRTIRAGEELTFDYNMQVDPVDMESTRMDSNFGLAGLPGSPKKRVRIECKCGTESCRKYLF

SETDB1 = SETDB1 (Homo sapiens, UniProt Q15047); experiment: Enzyme selectivity assay, SETDB1; assay type: biochemical; details: means of at least three measurements
PRMT1 = PRMT1 (Homo sapiens, UniProt Q99873); experiment: Enzyme selectivity assay, PRMT1; assay type: biochemical; details: means of at least three measurements
Sequence of PRMT1 (Q99873 whole entry, species assumed): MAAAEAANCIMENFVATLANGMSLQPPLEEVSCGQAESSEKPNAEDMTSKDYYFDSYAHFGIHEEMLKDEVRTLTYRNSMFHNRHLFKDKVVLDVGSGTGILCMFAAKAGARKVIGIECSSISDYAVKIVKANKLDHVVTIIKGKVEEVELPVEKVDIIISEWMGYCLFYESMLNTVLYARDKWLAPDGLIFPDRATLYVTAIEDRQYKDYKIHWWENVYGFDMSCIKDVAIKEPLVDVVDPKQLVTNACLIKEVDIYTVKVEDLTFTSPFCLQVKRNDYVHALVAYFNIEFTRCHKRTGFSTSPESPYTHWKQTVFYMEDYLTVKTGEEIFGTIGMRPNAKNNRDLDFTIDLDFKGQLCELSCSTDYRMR

SMYD3 = molecular target: T4, SMYD3 (Homo sapiens, UniProt Q9H7B4); experiment: Enzyme selectivity assay, SMYD3; assay type: biochemical; details: means of at least three measurements
T4 sequence (Q9H7B4 1-428): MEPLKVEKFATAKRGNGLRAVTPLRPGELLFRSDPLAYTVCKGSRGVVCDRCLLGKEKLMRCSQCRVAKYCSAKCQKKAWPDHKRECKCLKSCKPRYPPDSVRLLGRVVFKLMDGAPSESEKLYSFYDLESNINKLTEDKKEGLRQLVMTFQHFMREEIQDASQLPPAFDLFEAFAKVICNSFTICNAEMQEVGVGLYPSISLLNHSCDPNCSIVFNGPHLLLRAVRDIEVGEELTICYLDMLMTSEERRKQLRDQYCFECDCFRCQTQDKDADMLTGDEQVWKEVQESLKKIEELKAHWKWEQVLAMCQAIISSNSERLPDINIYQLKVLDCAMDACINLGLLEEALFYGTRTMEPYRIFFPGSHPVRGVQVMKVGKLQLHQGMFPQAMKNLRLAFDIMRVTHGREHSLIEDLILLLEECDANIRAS

EZH2 = EZH2 (Homo sapiens, UniProt Q15910); experiment: AlphaLISA assay for EZH2; assay type: biochemical; details: enzymatic assay; means of at least three measurements
Sequence of EZH2 (Q15910 whole entry): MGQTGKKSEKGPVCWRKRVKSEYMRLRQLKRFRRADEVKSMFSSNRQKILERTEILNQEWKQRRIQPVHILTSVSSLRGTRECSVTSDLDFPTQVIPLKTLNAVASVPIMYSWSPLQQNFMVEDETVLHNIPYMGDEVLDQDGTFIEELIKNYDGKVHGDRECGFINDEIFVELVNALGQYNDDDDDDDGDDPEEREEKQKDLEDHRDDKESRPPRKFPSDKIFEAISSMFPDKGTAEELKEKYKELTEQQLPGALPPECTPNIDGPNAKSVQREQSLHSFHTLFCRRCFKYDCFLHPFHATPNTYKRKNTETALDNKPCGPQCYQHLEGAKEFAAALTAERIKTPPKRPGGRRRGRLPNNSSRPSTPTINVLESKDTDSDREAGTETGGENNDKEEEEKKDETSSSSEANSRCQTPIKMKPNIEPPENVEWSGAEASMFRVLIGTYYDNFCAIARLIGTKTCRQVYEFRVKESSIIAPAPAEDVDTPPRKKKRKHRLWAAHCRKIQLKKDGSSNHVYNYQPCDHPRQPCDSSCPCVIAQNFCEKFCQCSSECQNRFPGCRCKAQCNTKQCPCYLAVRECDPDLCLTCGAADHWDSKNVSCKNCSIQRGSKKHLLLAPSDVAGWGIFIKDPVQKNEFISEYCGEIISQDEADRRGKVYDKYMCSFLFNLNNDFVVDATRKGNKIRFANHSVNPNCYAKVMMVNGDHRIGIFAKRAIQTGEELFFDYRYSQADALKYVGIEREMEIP
Sequence of EZH2 (O75530 whole entry partner): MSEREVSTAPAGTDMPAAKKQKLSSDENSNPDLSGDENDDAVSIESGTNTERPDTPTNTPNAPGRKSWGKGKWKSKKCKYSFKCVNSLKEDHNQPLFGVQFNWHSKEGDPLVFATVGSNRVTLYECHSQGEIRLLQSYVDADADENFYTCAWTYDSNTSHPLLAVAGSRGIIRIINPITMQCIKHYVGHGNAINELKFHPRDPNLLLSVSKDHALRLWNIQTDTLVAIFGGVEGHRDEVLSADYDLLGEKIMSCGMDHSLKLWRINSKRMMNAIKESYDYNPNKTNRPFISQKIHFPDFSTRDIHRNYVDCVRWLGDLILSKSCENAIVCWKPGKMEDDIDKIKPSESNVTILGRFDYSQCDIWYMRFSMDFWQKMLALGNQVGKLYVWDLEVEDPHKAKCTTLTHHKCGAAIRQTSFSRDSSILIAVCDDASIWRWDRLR
Sequence of EZH2 (Q15022 whole entry partner): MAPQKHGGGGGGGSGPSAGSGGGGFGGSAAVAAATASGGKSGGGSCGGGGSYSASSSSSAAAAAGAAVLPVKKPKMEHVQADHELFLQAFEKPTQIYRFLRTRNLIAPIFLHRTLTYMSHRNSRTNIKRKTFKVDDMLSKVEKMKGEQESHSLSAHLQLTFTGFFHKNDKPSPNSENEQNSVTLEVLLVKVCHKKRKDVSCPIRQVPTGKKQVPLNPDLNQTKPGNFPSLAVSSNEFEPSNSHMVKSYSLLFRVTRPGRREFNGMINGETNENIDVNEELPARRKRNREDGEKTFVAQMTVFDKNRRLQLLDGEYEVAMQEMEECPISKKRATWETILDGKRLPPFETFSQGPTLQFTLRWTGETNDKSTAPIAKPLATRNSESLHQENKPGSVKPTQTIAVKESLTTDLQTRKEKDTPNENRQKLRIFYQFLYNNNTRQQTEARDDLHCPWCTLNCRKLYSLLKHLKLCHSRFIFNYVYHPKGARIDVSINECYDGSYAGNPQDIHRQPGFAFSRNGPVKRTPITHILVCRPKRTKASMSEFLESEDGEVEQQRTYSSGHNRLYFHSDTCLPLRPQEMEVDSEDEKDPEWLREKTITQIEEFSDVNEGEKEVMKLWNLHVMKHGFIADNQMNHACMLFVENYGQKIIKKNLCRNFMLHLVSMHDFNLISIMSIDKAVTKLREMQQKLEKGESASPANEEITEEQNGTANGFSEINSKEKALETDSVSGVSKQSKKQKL

[2] = Homo sapiens, HCT-15, 96 h, read-out: IC50 HCT15, MTT, treatment 96 h

COc1cccc2nc(N3CCCN(C)CC3)cc(NC3CCN(C)CC3)c12 [Compound 5k, 5-Methoxy-2-(4-methyl-1,4-diazepan-1-yl)-N-(1-methylpiperidin-4-yl)quinolin-4-amine]
H3K27me3 level [1]: decreased global H3K27me3 level in cells; also recorded: obviously down-regulated
IC50 (MDA-MB-231): 2.45 ± 0.24 µM
IC50 (HCT15; [2]): 5.6 µM
IC50 (HCT15; read-out: IC50 HCT15, MTT, treatment 96 h): 7.6 ± 0.46 µM
IC50 (G9a): 82.6 ± 2.23 µM
IC50 (SETD8): 40 ± 2.71 µM
IC50 (SUV39H1): 21.2 ± 0.28 µM
IC50 (SETDB1): 27 ± 1.36 µM
IC50 (PRMT1): 28.8 ± 1.25 µM
IC50 (SMYD3): 35.4 ± 1.97 µM

COc1cccc2nc(N3CCCN(C)CC3)cc(Nc3ccc(C(C)C)cc3)c12 [Compound 5n, N-(4-Isopropylphenyl)-5-methoxy-2-(4-methyl-1,4-diazepan-1-yl)quinolin-4-amine]
IC50 (MDA-MB-231): 13.2 ± 2.53 µM
IC50 (HCT15; [2]): 14.6 ± 1.27 µM
IC50 (EZH2): 26.4 ± 2.04 µM

COc1cccc2nc(N3CCOCC3)cc(NC3CCN(Cc4ccccc4)CC3)c12 [Compound 5b, N-(1-Benzylpiperidin-4-yl)-5-methoxy-2-morpholinoquinolin-4-amine]
IC50 (MDA-MB-231): 14.2 ± 1.97 µM
IC50 (HCT15; [2]): 15.6 ± 1.27 µM
IC50 (EZH2): 23 ± 2.06 µM

COc1cccc(Nc2cc(N3CCCN(C)CC3)nc3cccc(OC)c23)c1 [Compound 5s, 5-Methoxy-N-(3-methoxyphenyl)-2-(4-methyl-1,4-diazepan-1-yl)quinolin-4-amine]
IC50 (MDA-MB-231): 16.9 ± 1.06 µM
IC50 (HCT15; [2]): 19.6 ± 0.56 µM
IC50 (EZH2): 16.8 ± 0.94 µM
